Test results reported in patent US20240034733A1, “KRAS G12D INHIBITORS” (Mirati Therapeutics, Inc., priority 2020, published 2024).

Assays:
[1] = molecular target: T1, GDP-loaded recombinant human KRAS G12D (Homo sapiens, UniProt P01116, G12D); assay: KRas G12D Binding Assay (TR-FRET displacement of Cy5 labelled tracer); details: 60 minute incubation at 22° C.
T1 construct: corresponding to amino acids 1:169, produced at Array BioPharma; biotin (biotinylated); made in house
Protocol: This Example illustrates that exemplary compounds of the present invention bind to KRas G12D and are capable of displacing a labeled tracer ligand occupying the KRas G12D binding site.
The ability of a compound to bind to KRAS G12D was measured using a TR-FRET displacement assay. Biotinylated GDP-loaded recombinant human KRAS G12D (corresponding to amino acids 1:169, produced at Array BioPharma) was incubated with a custom-made Cy5 labelled tracer, europium labelled streptavidin and compound (2% DMSO final) in buffer (50 mM HEPES [pH 7.5], 5 mM MgCl2, 0.005% Tween-20 & 1 mM DTT). After a 60 minute incubation at 22° C., the reaction was measured using a PerkinElmer EnVision multimode plate reader via TR-FRET dual wavelength detection, and the percent of control (POC) calculated using a ratiometric emission factor. […] The POC values were fit to a 4-parameter logistic curve and the IC50 value was determined as the concentration where the curve crosses 50 POC.

[2] = system: KRas G12D-mediated phosphorylation of ERK; assay: Inhibition of KRas G12D-mediated phosphorylation of ERK in AGS cells; format: cell-based; details: Homo sapiens; AGS cells expressing G12D, 3 hours, phospho-ERK normalized to GAPDH
Protocol: AGS cells (ATCC CRL-1739) expressing G12D were grown in DMEM medium supplemented with 10% fetal bovine serum, 10 mM HEPES, and Penicillin/Streptomycin. Cells were plated in tissue culture treated 96 well plates at a density of 40,000 cells/well and allowed to attach for 12-14 hours. Diluted compounds were then added in a final concentration of 0.5% DMSO. After 3 hours, the medium was removed, 150 μl of 4.0% formaldehyde was added and the plates incubated at room temperature for 20 minutes. The plates were washed with PBS, and permeabilized with 150p of ice cold 100% methanol for 10 minutes. Non-specific antibody binding to the plates was blocked using 100 μL Licor blocking buffer (Li-Cor Biotechnology, Lincoln NE) for 1 hour at room temperature.
The amount of phosho-ERK was determined using an antibody specific for the phosphorylated form of ERK and compared to the amount of GAPDH. Primary antibodies used for the detection were added as follows: Phospho-ERK (Cell Signaling cs-9101) diluted 1:500 and GAPDH (Millipore MAB374) diluted 1:5000 in Licor block+0.05% Tween 20. The plates were incubated for 2 hours at room temperature. The plates were washed with PBS+0.05% Tween 20.
Secondary antibodies used to visualize primary antibodies were added as follows: Anti-rabbit-680 diluted 1:1000 and Anti-mouse-800 diluted 1:1000 both in Licor block+0.05% Tween20, and were incubated for 1 hour at room temperature. The plates were washed with PBS +0.05% Tween 20. A 100 μl aliquot of PBS was added to each well and the plates were read on a Li-Cor Odyssey CLX plate reader phospho-ERK (Thr202/Tyr204) signal was normalized to the GAPDH signal for each well and percent of DMSO control values were calculated. IC50 values were generated using a 4-parameter fit of the dose response curve

T1 sequence (P01116 1-169 isoform P01116-2 G12D): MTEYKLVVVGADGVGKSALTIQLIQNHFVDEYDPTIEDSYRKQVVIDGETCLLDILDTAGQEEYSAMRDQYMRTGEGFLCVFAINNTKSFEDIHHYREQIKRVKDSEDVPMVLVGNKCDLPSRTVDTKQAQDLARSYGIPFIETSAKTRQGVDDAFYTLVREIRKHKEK

Row | Structure (SMILES) | IC50 [1] [nM] | IC50 [2] [nM]
1 | Oc1cccc(F)c1-c1c(Cl)cc2c(N3CC4CCC(C3)N4)nc(OCC34CCCN3C[C@H](F)C4)nc2c1F (mixture of isomers) [Example 6, 2-(4-((1R,5S)-3,8-diazabicyclo[3.2.1]octan-3-yl)-6-chloro-8-fluoro-2-(((2R,7aS)-2-fluorotetrahydro-1H-pyrrolizin-7a(5H)-yl)methoxy)quinazolin-7-yl)-3-fluorophenol] | 3.5 | 1800
2 | CN1CCC[C@H]1COc1nc(N2C[C@H]3CC[C@@H](C2)N3)c2cc(Oc3cccc(F)c3C#N)c(-c3cc(O)cc4ccccc34)c(F)c2n1 [Example 26, 2-((4-((1R,5S)-3,8-diazabicyclo[3.2.1]octan-3-yl)-8-fluoro-7-(3-hydroxynaphthalen-1-yl)-2-(((S)-1-methylpyrrolidin-2-yl)methoxy)quinazolin-6-yl)oxy)-6-fluorobenzonitrile] | 7.4 | 3540
3 | COc1ccc(F)c(Oc2cc3c(N4C[C@H]5CC[C@@H](C4)N5)nc(OC[C@@H]4CCCN4C)nc3cc2-c2cc(O)cc3ccccc23)c1 [Example 17, 4-(4-((1R,5S)-3,8-diazabicyclo[3.2.1]octan-3-yl)-6-(2-fluoro-5-methoxyphenoxy)-2-(((S)-1-methylpyrrolidin-2-yl)methoxy)quinazolin-7-yl)naphthalen-2-ol bis(2,2,2-trifluoroacetate)] | 8 | 5560
4 | Oc1cc(-c2ccc3c(N4C[C@H]5CC[C@@H](C4)N5)nc(OCC45CCCN4CCC5)nc3c2F)c2c(Cl)cccc2c1 [Example 4, 4-(4-((1R,5S)-3,8-diazabicyclo[3.2.1]octan-3-yl)-8-fluoro-2-((tetrahydro-1H-pyrrolizin-7a(5H)-yl)methoxy)quinazolin-7-yl)-5-chloronaphthalen-2-ol] | 0.7 | 21
5 | Oc1cc(-c2cc3nc(OC[C@@]45CCCN4C[C@H](F)C5)nc(N4C[C@H]5CC[C@@H](C4)N5)c3cc2Oc2ccccc2Cl)c2c(Cl)cccc2c1 [Example 23, 4-(4-((1R,5S)-3,8-diazabicyclo[3.2.1]octan-3-yl)-6-(2-chlorophenoxy)-2-(((2R,7aS)-2-fluorotetrahydro-1H-pyrrolizin-7a(5H)-yl)methoxy)quinazolin-7-yl)-5-chloronaphthalen-2-ol] | 6.6 | 264
6 | CN1CCC[C@H]1COc1nc(N2C[C@H]3CC[C@@H](C2)N3)c2cc(Oc3c(Cl)cccc3C#N)c(-c3cc(O)cc4ccccc34)c(F)c2n1 [Example 25, 2-((4-((1R,5S)-3,8-diazabicyclo[3.2.1]octan-3-yl)-8-fluoro-7-(3-hydroxynaphthalen-1-yl)-2-(((S)-1-methylpyrrolidin-2-yl)methoxy)quinazolin-6-yl)oxy)-3-chlorobenzonitrile] | 5.3 | 784
7 | N#Cc1ccccc1Oc1cc2c(N3CC4CCC(C3)N4)nc(OCC34CCCN3C[C@H](F)C4)nc2c(F)c1-c1cc(O)cc2ccccc12 (mixture of isomers) [Example 27, 2-((4-((1R,5S)-3,8-diazabicyclo[3.2.1]octan-3-yl)-8-fluoro-2-(((2R,7aS)-2-fluorotetrahydro-1H-pyrrolizin-7a(5H)-yl)methoxy)-7-(3-hydroxynaphthalen-1-yl)quinazolin-6-yl)oxy)benzonitrile] | 3.6 | 44
8 | CN1CCC[C@H]1COc1nc(N2CC3CCC(C2)N3)c2cc(Oc3cccnc3)c(-c3cc(O)cc4ccccc34)cc2n1 [Example 1] | 7 | 8390
9 | N#Cc1ccccc1Oc1cc2c(N3CC4CCC(C3)N4)nc(OCC34CCCN3C[C@H](F)C4)nc2cc1-c1cc(O)cc2ccccc12 (mixture of isomers) [Example 22, 2-((4-((1R,5R)-3,8-diazabicyclo[3.2.1]octan-3-yl)-2-(((2R,7aS)-2-fluorotetrahydro-1H-pyrrolizin-7a(5H)-yl)methoxy)-7-(3-hydroxynaphthalen-1-yl)quinazolin-6-yl)oxy)benzonitrile] | 1.7 | 140
